Data taken from patent US4696920A, “Certain 2-substituted 1,3-propylidenediphosphonate derivatives, pharmaceutical compositions containing them and their use as antihypertensive agents” (priority 1984, dated 1987).

Columns and labels:
[1] = tested on: calcium channel binding site for [^3 H]-Nitrendipine (rat brain membranes); test: [^3 H]-Nitrendipine binding to rat brain membranes; set-up: species or system rat (male Wistar); conditions: Table 1a; for Specifically bound [^3 H]-Nitrendipine % of control value: compound concentration 1.0 μM; for Bound ^3 H at 1.0 μM / Bound ^3 H at 0.1 μM: ratio of [^3 H]-Nitrendipine bound at 1.0 and 0.1 μM compound
Protocol: Diltiazem hydrochloride was a generous gift from Goedecke A. G.
Suitable dilutions were made in 50 mM Tris-HCl buffer (pH 7.4) containing 150 mM NaCl and 1 mM CaCl2. The ethanol concentration in the final assay never exceeded 0.1%.
The purity of the radioligand and of the various agents tested was monitored by thin layer chromatography on silica gel plates.
The following procedure was adapted from Bellemann et al (Proc. Nat. Acad. Sci. 80, 2356, 1983), and Gould et al (Proc. Nat. Acad. Sci. 79, 3656, 1982).
Adult male Wistar rats weighing 250-300 g were anesthetized with carbon dioxide prior to decapitation. The brain was removed then immersed in ice-cold 0.32M sucrose and washed 2-3 times with fresh solution. Cerebral cortex was minced and homogenized (Potter-Elvehjem homogenizer) in 10 volumes of ice-cold sucrose solution. The homogenate was centrifuged (4° C.) at 1000×g for 15 minutes. The resulting supernatant was then centrifuged at 90000×g (30 minutes) and the pellet was washed twice with 20 ml ice-cold 50 mM Tris-HCl pH 7.4.
The final pellet was resuspended in 50 mM Tris-HCl pH 7.4/150 mM NaCl/1 mM CaCl2 to give a protein concentration of 4 mg/ml.
The membrane suspension was kept on ice until used. Binding assays were performed in subdued light to prevent dihydropyridine breakdown. Membrane protein (400 μg/tube) was incubated in 50 mM Tris-HCl buffer (pH 7.4)/150 mM NaCl/1 mM CaCl2 with the indicated concentrations of radioligand and test compounds or known calcium antagonists, in a total volume of 2 ml. After the indicated time intervals, the reaction was terminated by rapid filtration through Whatman GF/B glass fiber filters (2.4 cm diameter) on a Millipore filter holder. The assay tube was rinsed with 2 ml ice-cold 50 mM Tris-HCl pH (7.4) and the precipitate was further washed with 2×5 ml of the same buffer.
Filters were dried under a heat lamp and were extracted with 10 ml of liquid scintillation cocktail (Toluene/Triton X-100, 2/1 containing 4 g Omnifluor/1) prior to tritium determination at 48% counting efficiency.
Assays were performed in duplicate or triplicate.
Data were expressed as percent specific [^3 H]-Nitrendipine binding relative to the established control value.
Compound activity in the [^3 H]-Nitrendipine binding assay was evaluated by using the following criteria:
1. [^3 H]-Nitrendipine binding at 1.0 μM compound final concentration was either below 95% or above 105% of the control value determined in absence of compound.
2. […] This ratio is indicative of a dose response relationship within the compound concentration range tested, when the value differs appreciably from 1.0.

[2] = tested on: rat trachea contraction induced by KCl depolarization; test: KCl-induced rat trachea contraction; set-up: species or system rat (male SHR, Okamoto-Aoki); conditions: for activity at 1 µM: Rattus norvegicus, 40 min, read-out: Contraction (% max.); for activity on KCl-induced trachea contraction (in words): final concentration 1.0 μM
Protocol: Spontaneously hypertensive male rats (SHR) Okamoto-Aoki Strain, weighing 300-400 g were used in this study. They were killed by bleeding after Pentobarbital anesthesia (Nembutal, Abbott Co, 40 mg/kg). Their entire trachea was quickly removed and dissected free of fat and connective tissue in Krebs-Ringer solution. A strip (4 mm×40 mm), obtained by spirally cutting the trachea, was immediately suspended in a 50 ml Krebs-Ringer solution and continuously bubbled with a O2 /CO2 (95/5) mixture. Bath temperature was maintained at 37±1° C. The composition (mM) of the Krebs-Ringer solution modified by Nghiem, was as follows: NaCl, (118.0); KCl, (4.7); CaCl2, (2.5); MgCl2, (1.18); NaHCO3, (12.5); KH2 P04, (1.18); glucose, (5.5) in bidistilled water (pH 7.4). Each strip was equilibrated under initial tension (1.5-2 g) for 1-2 hours and the bath solution changed every 30 min. A contractile or relaxant response was isometrically measured with a force-displacement transducer (Ugo-Basile) and recorded on a polygraph (Beckman).
After equilibration, KCl was added to the bath at 65 mM final concentration. This concentration produced maximum trachea contraction. Under these conditions, a plateau phase showing a tonic sustained contraction was reached within 30 minutes. Drugs were added 30 minutes after the plateau phase has been reached (final concentration=1.0 μM). […] Recordings of the residual trachea contraction were made 40 minutes after drug addition to the bathing fluid. The initial KCl induced contraction was taken as the maximum KCl response (100%). Results were expressed as % of maximal contraction. Nifedipine, Prenylamine, Flunarizine and Diltiazem were used as reference standards to validate this assay.
All 1,3-diphosphonates and drugs were dissolved in saline (0.9% NaCl) except when water insoluble, then the compounds were dissolved in 2% ethanol. The final concentration of ethanol used has been shown not to interfere with the assay.
Results are expressed as mean values±SEM, the Student's t-test was used for statistical analysis.

| Structure (SMILES) | Specifically bound [^3 H]-Nitrendipine % of control value [1] | Bound ^3 H at 1.0 μM / Bound ^3 H at 0.1 μM [1] | activity at 1 µM [2] [%] | activity on KCl-induced trachea contraction (in words) [2] | modulation of [^3 H]-Nitrendipine binding (in words) [1] |
| --- | --- | --- | --- | --- | --- |
| O=P(O)(O)CC(Cc1ccccc1)CP(=O)(O)O [Compound 2, 2-Benzyl-1,3-propylidenediphosphonic acid] | 98 % of control value | 1.002 | – | – | – |
| O=P(O)(O)CC(CCc1ccccc1)CP(=O)(O)O [Compound 3] | 94 % of control value | 0.955 | – | – | – |
| O=P(O)(O)CC(CCCc1ccccc1)CP(=O)(O)O [Compound 4] | 99 % of control value | 0.957 | – | – | – |
| O=P(O)(O)CC(Cc1ccc(Cl)cc1)CP(=O)(O)O [Compound 5] | 99 % of control value | 1.003 | – | – | – |
| COP(=O)(CC(Cc1ccccc1)CP(=O)(OC)OC)OC [Compound 10, Tetramethyl 2-benzyl-1,3-propylidenediphosphonate] | 92 % of control value | 0.983 | 91 | – | – |
| COP(=O)(CC(CCc1ccccc1)CP(=O)(OC)OC)OC [Compound 11] | 96 % of control value | 1.024 | – | – | – |
| CCOP(=O)(CC(Cc1cccc2ccccc12)CP(=O)(OCC)OCC)OCC [Compound 37] | 104 % of control value | 1.011 | 53.8 ± 0.4 | potent pharmacological activity | – |
| CCOP(=O)(CC(Cc1ccc(-c2ccccc2)cc1)CP(=O)(OCC)OCC)OCC [Compound 38] | 60 % of control value | 0.721 | 84 ± 2.4 | potent pharmacological activity | strong inhibitors |
| CCOP(=O)(CC(CP(=O)(OCC)OCC)C(c1ccccc1)c1ccccc1)OCC [Compound 39] | 110 % of control value | 1.220 | 96 ± 4.9 | – | – |
| CCOP(=O)(CC(CP(=O)(OCC)OCC)c1ccccn1)OCC [Compound 40] | 100 % of control value | 0.978 | 61.2 ± 4.6 | potent pharmacological activity | – |
| CC(C)OP(=O)(CC(CCCc1ccccc1)CP(=O)(OC(C)C)OC(C)C)OC(C)C [Compound 56] | 115 % of control value | 1.115 | 100 | – | activators |
